# Results taken from ChEMBL document CHEMBL1141791, “A cytotoxic sesquiterpene alkaloid from the South China Sea gorgonian Subergorgia suberosa” (J Nat Prod, 2005).
# System: MDA-MB-231
# Assay: Cytotoxicity against human MDA-MB-231 cells by MTT method
# Assay type: functional, cell-based
structure (smiles),measurement,value
C[C@H]1CC[C@H]2[C@H]3CC(=O)[C@H](Cn4c(O)nc5c(O)ncnc54)[C@]31CC2(C)C,IC50,8.87 µg/mL
